Experimental data published in patent publication US20170114049A1, “2,5-DISUBSTITUTED CYCLOPENTANE CARBOXYLIC ACIDS FOR THE TREATMENT OF RESPIRATORY TRACT DISEASES” (BAYER PHARMA AKTIENGESELLSCHAFT, priority 2014, published 2017).
≈ marks a conversion by molar mass, not a printed value.

Experiments:
[1] = molecular target: T1, MMP-16 (Homo sapiens, UniProt P51512); test: In vitro MMP-16 inhibition test; assay type: biochemical
T1 construct: purchased R&D Systems 1785-MP
Source text: (§1) The MMP-mediated amidolytic cleavage of a suitable peptide substrate leads to an increase in fluorescent light here too. The signal intensity of the fluorescent light is directly proportional to the enzyme activity. The active concentration of a test compound at which half the enzyme is inhibited (50% signal intensity of the fluorescent light) is reported as the […].
Recombinant MMP-16 (from R&D Systems, 1785-MP) is enzymatically activated in accordance with the manufacturer's instructions using recombinant furin (from R&D Systems, 1503-SE). 1 μl of the test compound to be analysed (as a solution in DMSO, suitable concentrations e.g. 1 nM to 30 μM) is pipetted into 24 μl of activated enzyme (final concentration e.g. 1 nM) in reaction buffer (50 mM Tris/HCl pH 7.5, 10 mM CaCl2, 150 mM NaCl, 0.05% Brij®-35) in a white 384-hole microtiter plate (MTP). The enzymatic reaction is started by adding the intramolecularly quenched Mca-Lys-Pro-Leu-Gly-Leu-Dpa(Dnp)-Ala-Arg-NH2 substrate (final concentration, for example, 5 μM; R&D Systems, ES-010), so as to result in a total test volume of 50 μl. The course of the MMP-16 reaction is measured by measuring the fluorescence intensity (excitation 320 nm, emission 410 nm) over a suitable period of time (for example over 120 min at a temperature of 32° C.).

[2] = molecular target: T2, MMP-2 (Homo sapiens, UniProt P08253); test: In vitro MMP-2 inhibition test; assay type: biochemical
T2 construct: purchased R&D Systems 902-MP
T2 sequence (P08253 110-660): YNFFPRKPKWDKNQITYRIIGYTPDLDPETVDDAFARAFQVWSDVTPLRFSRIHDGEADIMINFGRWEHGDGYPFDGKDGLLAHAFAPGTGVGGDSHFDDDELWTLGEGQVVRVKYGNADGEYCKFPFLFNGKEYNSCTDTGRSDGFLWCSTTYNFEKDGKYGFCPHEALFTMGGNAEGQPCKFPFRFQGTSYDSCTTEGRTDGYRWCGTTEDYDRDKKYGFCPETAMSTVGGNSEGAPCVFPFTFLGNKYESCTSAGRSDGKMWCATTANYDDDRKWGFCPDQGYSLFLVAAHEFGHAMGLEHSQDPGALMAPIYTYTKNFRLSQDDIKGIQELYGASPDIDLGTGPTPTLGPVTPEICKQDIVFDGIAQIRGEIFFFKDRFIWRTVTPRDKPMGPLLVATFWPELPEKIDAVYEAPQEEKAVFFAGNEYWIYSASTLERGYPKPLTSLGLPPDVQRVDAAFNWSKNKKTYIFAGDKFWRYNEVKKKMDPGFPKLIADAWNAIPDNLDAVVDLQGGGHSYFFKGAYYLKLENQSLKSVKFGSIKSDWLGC
Source text: as §1
(§2) Recombinant MMP-2 (from R&D Systems, 902-MP) is chemically activated in accordance with the manufacturer's instructions using APMA. 1 μl of the test compound to be analysed (as a solution in DMSO, suitable concentrations, for example, 1 nM to 30 μM) is pipetted into 24 μl of activated enzyme (final concentration, for example, 2 nM) in reaction buffer (50 mM Tris/HCl pH 7.5, 10 mM CaCl2, 150 mM NaCl, 0.05% Brij®-35) in a white 384-hole microtiter plate (MTP). The enzymatic reaction is started by adding the intramolecularly quenched Mca-Pro-Leu-Gly-Leu-Dpa(Dnp)-Ala-Arg-NH2 substrate (final concentration, for example, 10 μM; R&D Systems, ES-001), so as to result in a total test volume of 50 μl. The course of the MMP-2 reaction is measured by measuring the fluorescence intensity (excitation 320 nm, emission 410 nm) over a suitable period of time (for example over 120 min at a temperature of 32° C.).

[3] = molecular target: T3, MMP-13 (Homo sapiens, UniProt P45452); test: In vitro MMP-13 inhibition test; assay type: biochemical
T3 construct: purchased R&D Systems 511-MP
Source text: as §1
as §2, with “Recombinant MMP-13” for “Recombinant MMP-2”, “Systems, 511-MP)” for “Systems, 902-MP)”, “example, 0.1” for “example, 2”, “the MMP-13” for “the MMP-2”

[4] = molecular target: T4, mouse MMP-9 (Mus musculus, UniProt P41245); test: In vitro mouse MMP-9 inhibition test; assay type: biochemical
T4 construct: purchased R&D Systems 909-MP
T4 sequence (P41245 108-730): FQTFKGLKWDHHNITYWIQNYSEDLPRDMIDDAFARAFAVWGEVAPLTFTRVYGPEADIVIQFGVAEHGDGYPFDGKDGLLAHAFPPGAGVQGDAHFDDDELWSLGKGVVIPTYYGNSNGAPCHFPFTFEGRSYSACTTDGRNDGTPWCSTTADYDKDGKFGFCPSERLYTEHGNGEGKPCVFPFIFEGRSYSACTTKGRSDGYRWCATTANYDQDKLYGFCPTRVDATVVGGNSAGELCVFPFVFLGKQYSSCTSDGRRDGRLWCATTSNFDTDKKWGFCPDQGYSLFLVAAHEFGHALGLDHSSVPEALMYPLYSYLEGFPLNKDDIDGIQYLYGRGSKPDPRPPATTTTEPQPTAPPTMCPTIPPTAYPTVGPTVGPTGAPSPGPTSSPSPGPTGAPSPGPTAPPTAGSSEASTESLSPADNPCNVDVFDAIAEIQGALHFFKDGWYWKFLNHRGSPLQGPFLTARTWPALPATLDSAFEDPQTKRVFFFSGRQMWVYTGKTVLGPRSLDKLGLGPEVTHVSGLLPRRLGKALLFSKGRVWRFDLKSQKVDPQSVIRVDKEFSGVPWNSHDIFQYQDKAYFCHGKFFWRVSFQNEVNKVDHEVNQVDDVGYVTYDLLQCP
Source text: as §1
as §2, with “Recombinant mouse MMP-9” for “Recombinant MMP-2”, “Systems, 909-MP)” for “Systems, 902-MP)”, “example, 0.1” for “example, 2”, “example, 5” for “example, 10”, “the MMP-9” for “the MMP-2”

[5] = Determination of solubility in PBS buffer pH 6.5; settings: PBS buffer pH 6.5, 1% DMSO, room temperature; for solubility at 24 h: PBS buffer, pH 6.5, aqueous buffer, kinetic from dmso stock
Experimental: The test substance is dissolved in DMSO. An aliquot is taken from this solution and introduced into PBS buffer pH 6.5 (DMSO content: 1%). This solution/suspension is agitated at room temperature for 24 h. After ultracentrifugation at 114000 g for 30 min, the supernatant is removed, diluted with acetonitrile/water 8:2 and analysed by LC-MSMS. Quantification is effected by means of a five-point calibration curve of the test compound in DMSO.

T1 sequence (P51512 120-607): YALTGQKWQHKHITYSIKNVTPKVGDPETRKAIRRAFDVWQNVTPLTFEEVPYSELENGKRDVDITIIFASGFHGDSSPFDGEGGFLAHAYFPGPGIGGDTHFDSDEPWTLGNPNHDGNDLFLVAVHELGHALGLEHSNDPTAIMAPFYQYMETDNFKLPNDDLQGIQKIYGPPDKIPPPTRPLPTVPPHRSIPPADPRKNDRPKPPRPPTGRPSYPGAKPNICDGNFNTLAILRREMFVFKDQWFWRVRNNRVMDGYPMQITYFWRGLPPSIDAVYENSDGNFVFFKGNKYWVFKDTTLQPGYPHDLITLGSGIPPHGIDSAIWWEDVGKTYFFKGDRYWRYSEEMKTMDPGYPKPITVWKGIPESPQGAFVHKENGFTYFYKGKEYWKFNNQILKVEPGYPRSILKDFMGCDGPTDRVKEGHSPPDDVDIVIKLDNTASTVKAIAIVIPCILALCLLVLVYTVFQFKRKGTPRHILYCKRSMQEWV

| Compound | IC50 [1] | IC50 [2] | IC50 [3] | IC50 [4] | solubility at 24 h [5] | Solubility ([5]; 24 h) |
| --- | --- | --- | --- | --- | --- | --- |
| O=C(O)[C@H]1[C@H](Cn2nnc3ccc(C(F)(F)F)cc3c2=O)CC[C@@H]1C(=O)c1ccc(OCC2CCOCC2)cc1 (racemic) [Example 7, (+/−)-(1RS,2SR,5RS)-2-{[4-Oxo-6-(trifluoromethyl)-1,2,3-benzotriazin-3(4H)-yl]methyl}-5-[4-(tetrahydro-2H-pyran-4-ylmethoxy)benzoyl]cyclopentanecarboxylic acid] | 830 nM | 380 nM | 140 nM | – | – | – |
| Cc1ccc2nnn(C[C@@H]3CC[C@H](C(=O)c4ccc(OCCC5CCOCC5)cc4)[C@H]3C(=O)O)c(=O)c2c1 (racemic) [Example 19, (+/−)-(1RS,2SR,5RS)-2-[(6-Methyl-4-oxo-1,2,3-benzotriazin-3(4H)-yl)methyl]-5-{4-[2-(letrahydro-2H-pyran-4-yl)ethoxy]benzoyl}cyclopentanecarboxylic acid] | 2500 nM | 930 nM | 590 nM | 2200 nM | 17 µg/mL (≈ 32.7 µM) | – |
| O=C(O)[C@@H]1[C@@H](Cn2nnc3ccccc3c2=O)CC[C@H]1C(=O)c1ccc(OCCC2CCOCC2)cc1 (single isomer, unassigned) [Example 5, (+)-(1RS,2SR,5RS)-2-[(4-Oxo-1,2,3-benzotriazin-3(4H)-yl)methyl]-5-{4-[2-(tetrahydro-2H-pyran-4-yl)ethoxy]benzoyl}cyclopentanecarboxylic acid] | 940 nM | 44 nM | 67 nM | 210 nM | 338 µg/mL (≈ 669 µM) | – |
| O=C(O)[C@@H]1[C@@H](Cn2nnc3ccc(C(F)(F)F)cc3c2=O)CC[C@H]1C(=O)c1ccc(OCCC2CCOCC2)cc1 (single isomer, unassigned) [Example 11, (+)-(1RS,2SR,5RS)-2-{[4-Oxo-6-(trifluoromethyl)-1,2,3-benzotriazin-3(4H)-yl]methyl}-5-{4-[2-(tetrahydro-2H-pyran-4-yl)ethoxy]benzoyl}cyclopentanecarboxylic acid] | 3800 nM | 510 nM | 470 nM | 1900 nM | 210 µg/mL (≈ 366 µM) | – |
| O=C(O)[C@@H]1[C@@H](Cn2nnc3ccc(C(F)(F)F)cc3c2=O)CC[C@H]1C(=O)c1ccc(SCC2CCOCC2)cc1 (single isomer, unassigned) [Example 15, (+)-(1RS,2SR,5RS)-2-{[4-Oxo-6-(trifluoromethyl)-1,2,3-benzotriazin-3(4H)-yl]methyl}-5-{4-[(tetrahydro-2H-pyran-4-ylmethyl)sulphanyl]benzoyl}cyclopentanecarboxylic acid] | 760 nM | 330 nM | 220 nM | – | – | – |
| Cc1ccc2nnn(C[C@H]3CC[C@@H](C(=O)c4ccc(OCCC5CCOCC5)cc4)[C@@H]3C(=O)O)c(=O)c2c1 (single isomer, unassigned) [Example 20, (+)-(1RS,2SR,5RS)-2-[(6-Methyl-4-oxo-1,2,3-benzotriazin-3(4H)-yl)methyl]-5-{4-[2-(tetrahydro-2H-pyran-4-yl)ethoxy]benzoyl}cyclopentanecarboxylic acid] | 3100 nM | 300 nM | 170 nM | 800 nM | 425 µg/mL (≈ 818 µM) | – |
| O=C(O)[C@H]1[C@H](Cn2nnc3ccccc3c2=O)CC[C@@H]1C(=O)c1ccc(OCC2CCOCC2)cc1 (stereo in doubt) [Example 1, (+/−)-(1RS,2SR,5RS)-2-[(4-Oxo-1,2,3-benzotriazin-3(4H)-yl)methyl]-5-[4-(tetrahydro-2H-pyran-4-ylmethoxy)benzoyl]cyclopentanecarboxylic acid] | 1500 nM | 140 nM | 110 nM | 560 nM | 52.2 µg/mL (≈ 106 µM) | – |
| O=C(O)[C@@H]1[C@@H](Cn2nnc3ccccc3c2=O)CC[C@H]1C(=O)c1ccc(OCC2CCOCC2)cc1 (stereo in doubt) [Example 2, (+)-(1RS,2SR,5RS)-2-[(4-Oxo-1,2,3-benzotriazin-3(4H)-yl)methyl]-5-[4-(tetrahydro-2H-pyran-4-ylmethoxy)benzoyl]cyclopentanecarboxylic acid] | 550 nM | 60 nM | 49 nM | 280 nM | – | – |
| O=C(O)[C@H]1[C@H](Cn2nnc3ccccc3c2=O)CC[C@@H]1C(=O)c1ccc(OCCC2CCOCC2)cc1 (stereo in doubt) [Example 4, (+/−)-(1RS,2SR,5RS)-2-[(4-Oxo-1,2,3-benzotriazin-3(4H)-yl)methyl]-5-{4-[2-(tetrahydro-2H-pyran-4-yl)ethoxy]benzoyl}cyclopentanecarboxylic acid] | 7100 nM | 360 nM | 460 nM | 1500 nM | 51.4 µg/mL (≈ 102 µM) | – |
| O=C(O)[C@H]1[C@H](Cn2nnc3ccc(C(F)(F)F)cc3c2=O)CC[C@@H]1C(=O)c1ccc(OCCC2CCOCC2)cc1 (stereo in doubt) [Example 10, (+/−)-(1RS ,2S R,5RS)-2-{[4-Oxo-6-(trifluoromethyl)-1,2,3-benzotriazin-3(4H)-yl]methyl}-5-{4-[2-(tetrahydro-2H-pyran-4-yl)ethoxy]benzoyl}cyclopentanecarboxylic acid] | 1800 nM | 220 nM | 230 nM | 930 nM | 33.4 µg/mL (≈ 58.2 µM) | – |
| (+)-(1RS,2SR,5RS)-2-{[4-Oxo-6-(trifluoromethyl)-1,2,3-benzotriazin-3(4H)-yl]methyl}-5-[4-(tetra-hydro-2H-pyran-4-ylmethoxy)benzoyl]cyclopentanecarboxylic acid [Example 8] | 280 nM | 140 nM | 51 nM | – | – | 4.5 µg/mL |
